This note sets out measurements from PubChem BioAssay AID212 (DTP/NCI, 2004).

“And” between values parts separate entries of the source, which are not always exact repeats. Identical values can stand only once. Inconclusive results are not listed.

The subject of this experiment is BDF1 mice, colon carcinoma 38 sc, T/C %. In words: NCI In Vivo Anticancer Drug Screen. Data for tumor model Colon Carcinoma 38 (subcutaneous) in B6D2F1 (BDF1) mice. Put shortly:
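Mice with transplanted tumors are treated with compound or vehicle. Survival or tumor size is then measured in both groups. The ratio of treated to control gives the reported figure.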

Setting [1] is: endpoint: median tumor weight (est.), dose: 12.5 mg/kg/injection, schedule: Q07DX002 (ip), vehicle: saline with Tween-80, higher = larger tumour.
[2] abbreviates: endpoint: median tumor weight (est.), dose: 25.0 mg/kg/injection, schedule: Q07DX002 (ip), vehicle: saline, higher = larger tumour.
The mark [3] stands for this setting: endpoint: median tumor weight (est.), dose: 50.0 mg/kg/injection, schedule: Q07DX002 (ip), vehicle: saline, higher = larger tumour.
Where [4] appears, read: endpoint: median tumor weight (est.), dose: 100.0 mg/kg/injection, schedule: Q07DX002 (ip), vehicle: saline, higher = larger tumour.
Setting [5] is: endpoint: median tumor weight (est.), dose: 12.5 mg/kg/injection, schedule: Q07DX002 (ip), vehicle: saline, higher = larger tumour.

Turning to `O=C(NO)c1cc(O)c(O)c(O)c1`, the T/C (endpoint: median tumor weight (est.), dose: 50.0 mg/kg/injection, schedule: Q07DX002 (ip), vehicle: water, higher = larger tumour) is 80 % of control; the T/C (endpoint: median tumor weight (est.), dose: 100.0 mg/kg/injection, schedule: Q07DX002 (ip), vehicle: water, higher = larger tumour) is 70 % of control; the T/C (endpoint: median tumor weight (est.), dose: 200.0 mg/kg/injection, schedule: Q07DX002 (ip), vehicle: water, higher = larger tumour) was 68 % of control; the T/C (endpoint: median tumor weight (est.), dose: 400.0 mg/kg/injection, schedule: Q07DX002 (ip), vehicle: water, higher = larger tumour) was 83 % of control; the T/C (endpoint: median tumor weight (est.), dose: 800.0 mg/kg/injection, schedule: Q07DX002 (ip), vehicle: water, higher = larger tumour) was 40 % of control.

`[Cl][Pt+2][Cl].[NH-]CC1(C[NH-])CCC1`: the T/C (endpoint: median tumor weight (est.), dose: 12.5 mg/kg/injection, schedule: Q07DX002 (ip), vehicle: suspension in saline, higher = larger tumour) was 50 % of control.

On to `COc1ccc(C(=O)c2no[n+]([O-])c2C(=O)c2ccc(OC)cc2)cc1`, for which the T/C runs as follows: under setting [1], 107 % of control; (endpoint: median tumor weight (est.), dose: 50.0 mg/kg/injection, schedule: Q07DX002 (ip), vehicle: saline with Tween-80, higher = larger tumour) 99 % of control and 106 % of control.

In the case of `O=c1nc(Oc2ccccc2)nc2ncccn12`, the T/C by setting is: under setting [1], 82 % of control; (endpoint: median tumor weight (est.), dose: 25.0 mg/kg/injection, schedule: Q07DX002 (ip), vehicle: saline with Tween-80, higher = larger tumour) 94 % of control; (endpoint: median tumor weight (est.), dose: 100.0 mg/kg/injection, schedule: Q07DX002 (ip), vehicle: saline with Tween-80, higher = larger tumour) 74 % of control.

For `C=C1C(O)C2(O)OCC34C(CC5C(C)=CC(=O)C(O)C5(C)C23)OC(=O)C(OC(=O)C(C)(O)CC)C14` (stereo not given), the T/C (endpoint: median tumor weight (est.), dose: 0.12 mg/kg/injection, schedule: Q07DX002 (ip), vehicle: saline + alcohol, higher = larger tumour) was 93 % of control; the T/C (endpoint: median tumor weight (est.), dose: 0.25 mg/kg/injection, schedule: Q07DX002 (ip), vehicle: saline + alcohol, higher = larger tumour) is 71 % of control; the T/C (endpoint: median tumor weight (est.), dose: 0.5 mg/kg/injection, schedule: Q07DX002 (ip), vehicle: saline + alcohol, higher = larger tumour) was 93 % of control; the T/C (endpoint: median tumor weight (est.), dose: 1.0 mg/kg/injection, schedule: Q07DX002 (ip), vehicle: saline + alcohol, higher = larger tumour) was 52 % of control; the T/C (endpoint: median tumor weight (est.), dose: 2.0 mg/kg/injection, schedule: Q07DX002 (ip), vehicle: saline + alcohol, higher = larger tumour) was 57 % of control.

Consider `O=CCC(O)C(O)C(O)CO` (stereo not given), for which the T/C was 108 % of control (endpoint: median tumor weight (est.), dose: 600.0 mg/kg/injection, schedule: Q07DX002 (ip), vehicle: suspension in saline, higher = larger tumour); 96 % of control (endpoint: median tumor weight (est.), dose: 1800.0 mg/kg/injection, schedule: Q07DX002 (ip), vehicle: suspension in saline, higher = larger tumour); 102 % of control (endpoint: median tumor weight (est.), dose: 2400.0 mg/kg/injection, schedule: Q07DX002 (ip), vehicle: suspension in saline, higher = larger tumour); 74 % of control (endpoint: median tumor weight (est.), dose: 3600.0 mg/kg/injection, schedule: Q07DX002 (ip), vehicle: suspension in saline, higher = larger tumour).

Turning to `NCCc1cc(O)c(O)c(O)c1`, the T/C by setting is: under setting [2], 71 % of control; under setting [3], 62 % of control; under setting [4], 82 % of control; (endpoint: median tumor weight (est.), dose: 200.0 mg/kg/injection, schedule: Q07DX002 (ip), vehicle: saline, higher = larger tumour) 80 % of control; (endpoint: median tumor weight (est.), dose: 400.0 mg/kg/injection, schedule: Q07DX002 (ip), vehicle: saline, higher = larger tumour) 110 % of control; (endpoint: median tumor weight (est.), dose: 800.0 mg/kg/injection, schedule: Q07DX002 (ip), vehicle: saline, higher = larger tumour) 51 % of control.

Regarding `COc1ccc2c(NCCCCCCNc3c4ccccc4nc4cc(OC)ccc34)c3ccccc3nc2c1`, the T/C by setting is: (endpoint: median tumor weight (est.), dose: 0.31 mg/kg/injection, schedule: Q07DX002 (ip), vehicle: lactic acid, higher = larger tumour) 54 % of control; (endpoint: median tumor weight (est.), dose: 0.32 mg/kg/injection, schedule: Q07DX002 (ip), vehicle: lactic acid, higher = larger tumour) 72 % of control.

For the compound `N[C@H](C(=O)O)[C@@H]1CC(Cl)=NO1`, the T/C reads like this: (endpoint: median survival time, dose: 25.9 mg/kg/injection, schedule: Q04DX002 (ip), vehicle: suspension in saline, higher = longer survival) 113 % of control; (endpoint: median survival time, dose: 43.2 mg/kg/injection, schedule: Q04DX002 (ip), vehicle: suspension in saline, higher = longer survival) 122 % of control; (endpoint: median survival time, dose: 72.0 mg/kg/injection, schedule: Q04DX002 (ip), vehicle: suspension in saline, higher = longer survival) 114 % of control; (endpoint: median survival time, dose: 200.0 mg/kg/injection, schedule: Q04DX002 (ip), vehicle: suspension in saline, higher = longer survival) 119 % of control; (endpoint: median tumor weight (est.), dose: 1.0 mg/kg/injection, schedule: Q07DX003 (ip), vehicle: saline, higher = larger tumour) 114 % of control; (endpoint: median tumor weight (est.), dose: 2.0 mg/kg/injection, schedule: Q07DX003 (ip), vehicle: saline, higher = larger tumour) 71 % of control and 79 % of control. Further, the T/C runs as follows: (endpoint: median tumor weight (est.), dose: 4.0 mg/kg/injection, schedule: Q07DX003 (ip), vehicle: saline, higher = larger tumour) 86 % of control; (endpoint: median tumor weight (est.), dose: 8.0 mg/kg/injection, schedule: Q07DX003 (ip), vehicle: saline, higher = larger tumour) 156 % of control; (endpoint: median tumor weight (est.), dose: 16.0 mg/kg/injection, schedule: Q07DX003 (ip), vehicle: saline, higher = larger tumour) 69 % of control; (endpoint: median tumor weight (est.), dose: 32.0 mg/kg/injection, schedule: Q07DX003 (ip), vehicle: saline, higher = larger tumour) 69 % of control; (endpoint: median tumor weight (est.), dose: 64.0 mg/kg/injection, schedule: Q07DX003 (ip), vehicle: saline, higher = larger tumour) 78 % of control.

Turning to `CC1C=NNC1=O` (stereo not given), the T/C is, setting by setting: (endpoint: median tumor weight (est.), dose: 50.0 mg/kg/injection, schedule: Q07DX002 (ip), vehicle: Klucel (hydroxypropylcellulose) (HPC), higher = larger tumour) 84 % of control; (endpoint: median tumor weight (est.), dose: 100.0 mg/kg/injection, schedule: Q07DX002 (ip), vehicle: Klucel (hydroxypropylcellulose) (HPC), higher = larger tumour) 91 % of control and 96 % of control; (endpoint: median tumor weight (est.), dose: 200.0 mg/kg/injection, schedule: Q07DX002 (ip), vehicle: Klucel (hydroxypropylcellulose) (HPC), higher = larger tumour) 97 % of control and 98 % of control; (endpoint: median tumor weight (est.), dose: 400.0 mg/kg/injection, schedule: Q07DX002 (ip), vehicle: Klucel (hydroxypropylcellulose) (HPC), higher = larger tumour) 76 % of control.

As for `NC(Cc1ccc(N(CCCl)CCCl)cc1)C(=O)O` (stereo not given), the T/C runs as follows: (endpoint: median tumor weight (est.), dose: 1.0 mg/kg/injection, schedule: Q07DX002 (ip), vehicle: Klucel (hydroxypropylcellulose) (HPC), higher = larger tumour) 71 % of control; (endpoint: median tumor weight (est.), dose: 1.0 mg/kg/injection, schedule: Q07DX002 (ip), vehicle: water, higher = larger tumour) 84 % of control; (endpoint: median tumor weight (est.), dose: 2.0 mg/kg/injection, schedule: Q07DX002 (ip), vehicle: water, higher = larger tumour) 97 % of control; (endpoint: median tumor weight (est.), dose: 4.0 mg/kg/injection, schedule: Q07DX002 (ip), vehicle: water, higher = larger tumour) 59 % of control; (endpoint: median tumor weight (est.), dose: 8.0 mg/kg/injection, schedule: Q07DX002 (ip), vehicle: Klucel (hydroxypropylcellulose) (HPC), higher = larger tumour) 47 % of control and 51 % of control and 53 % of control; (endpoint: median tumor weight (est.), dose: 8.0 mg/kg/injection, schedule: Q07DX002 (ip), vehicle: water, higher = larger tumour) 37 % of control. Moreover, for the setting “endpoint: median tumor weight (est.), dose: 16.0 mg/kg/injection, schedule: Q07DX002 (ip), vehicle: Klucel (hydroxypropylcellulose) (HPC), higher = larger tumour”, the T/C was 9 % of control and 14 % of control.

Take `COc1cc2cc(c1Cl)N(C)C(=O)CC(OC(=O)CC(C)C)C1(C)OC1C(C)C1CC(O)(NC(=O)O1)C(OC)/C=C/C=C(C)C2` (stereo not given): the T/C (endpoint: median tumor weight (est.), dose: 6.2 micrograms/kg/injection, schedule: Q07DX003 (ip), vehicle: saline + alcohol, higher = larger tumour) is 121 % of control and the T/C (endpoint: median tumor weight (est.), dose: 25.0 micrograms/kg/injection, schedule: Q07DX003 (ip), vehicle: saline + alcohol, higher = larger tumour) was 75 % of control.

As to `[CH3][Sn]([CH3])([Cl])[S]CCN`, the T/C is, setting by setting: under setting [5], 71 % of control; under setting [2], 47 % of control; under setting [3], 90 % of control.

`C[C@@]1(CO)[C@H](O)CC[C@@]2(C)[C@H]1CC[C@H]1C[C@@H]3C[C@@]12CC[C@@]3(O)COC(=O)CN`: the T/C is, setting by setting: (endpoint: median tumor weight (est.), dose: 25.0 micrograms/kg/injection, schedule: Q07DX002 (ip), vehicle: saline + alcohol, higher = larger tumour) 155 % of control; (endpoint: median tumor weight (est.), dose: 100.0 micrograms/kg/injection, schedule: Q07DX002 (ip), vehicle: saline + alcohol, higher = larger tumour) 107 % of control.

`COC(=O)Nc1ccc(Cc2ccc(NC(=O)OC)cc2)cc1`: the T/C is 60 % of control (endpoint: median tumor weight (est.), dose: 6.25 mg/kg/injection, schedule: Q07DX002 (ip), vehicle: saline with Tween-80, higher = larger tumour); 87 % of control and 102 % of control (endpoint: median tumor weight (est.), dose: 400.0 mg/kg/injection, schedule: Q07DX002 (ip), vehicle: saline with Tween-80, higher = larger tumour).

With `OCCN1CCN(CCCN2c3ccccc3Sc3ccc(C(F)(F)F)cc32)CC1`, the T/C is, setting by setting: (endpoint: median tumor weight (est.), dose: 3.12 mg/kg/injection, schedule: Q07DX002 (ip), vehicle: saline, higher = larger tumour) 115 % of control; (endpoint: median tumor weight (est.), dose: 6.25 mg/kg/injection, schedule: Q07DX002 (ip), vehicle: saline, higher = larger tumour) 91 % of control; under setting [5], 61 % of control; under setting [2], 67 % of control; under setting [3], 56 % of control.

As to `COc1cccc(-c2cc(=O)c3cccc(CC(=O)O)c3o2)c1`, the T/C is, setting by setting: under setting [5], 88 % of control; under setting [2], 97 % of control; under setting [3], 110 % of control; under setting [4], 33 % of control.

In the case of `CC[C@@]1(O)C[C@H](OC2CC(N(C)C)C(OC3CC(O)C(OC4CC(O)C(O)C(C)O4)C(C)O3)C(C)O2)c2c(cc3c(c2O)C(=O)c2c(O)ccc(O)c2C3=O)[C@H]1C(=O)OC` (stereo not given in full), the T/C by setting is: (endpoint: median tumor weight (est.), dose: 1.5 mg/kg/injection, schedule: Q07DX003 (ip), vehicle: Klucel (hydroxypropylcellulose) (HPC), higher = larger tumour) 95 % of control; (endpoint: median tumor weight (est.), dose: 3.0 mg/kg/injection, schedule: Q07DX003 (ip), vehicle: Klucel (hydroxypropylcellulose) (HPC), higher = larger tumour) 72 % of control.
